Reference: ChEMBL document CHEMBL1201862, “PubChem BioAssay data set” (2004)
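Values below derive from 48-hour exposures of cells grown in 96-well plates, with endpoints linearly interpolated between the two concentrations bracketing the appropriate inhibition level. GI50: concentration for 50% inhibition of growth.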 Calls of active or inactive are those of the source. No stated cut-off is given here; in the data, active = GI50 up to about 1.1 µM and inactive = higher.

Key:
Assay in all cases: DTP human tumour cell line panel, 48 h
NCI-H522 = tested on: NCI-H522
SNB-75 = tested on: SNB-75
SK-MEL-2 = tested on: SK-MEL-2
BT-549 = tested on: BT-549
CCRF-CEM = tested on: CCRF-CEM
SF-268 = tested on: SF-268
TK-10 = tested on: TK-10
UACC-257 = tested on: UACC-257
UO-31 = tested on: UO-31
RPMI-8226 = tested on: RPMI-8226
MOLT-4 = tested on: MOLT-4
RXF 393 = tested on: RXF 393
OVCAR-3 = tested on: OVCAR-3
SNB-19 = tested on: SNB-19
SW-620 = tested on: SW-620
HCT-116 = tested on: HCT-116
LOX IMVI = tested on: LOX IMVI
DU-145 = tested on: DU-145
HCT-15 = tested on: HCT-15
HOP-62 = tested on: HOP-62
MDA-MB-435 = tested on: MDA-MB-435
NCI-H23 = tested on: NCI-H23
Hs-578T = tested on: Hs-578T
UACC-62 = tested on: UACC-62
A549 = tested on: A549
Malme-3M = tested on: Malme-3M
HCC 2998 = tested on: HCC 2998
A498 = tested on: A498
T47D = tested on: T47D
SK-MEL-5 = tested on: SK-MEL-5
OVCAR-5 = tested on: OVCAR-5
SF-295 = tested on: SF-295
NCI/ADR-RES = tested on: NCI/ADR-RES
SK-OV-3 = tested on: SK-OV-3
MDA-N = tested on: MDA-N
MDA-MB-231 = tested on: MDA-MB-231
CAKI-1 = tested on: CAKI-1
OVCAR-8 = tested on: OVCAR-8
COLO 205 = tested on: COLO 205
SN12C = tested on: SN12C
IGROV-1 = tested on: IGROV-1
M14 = tested on: M14
OVCAR-4 = tested on: OVCAR-4
786-0 = tested on: 786-0
SF-539 = tested on: SF-539
HOP-92 = tested on: HOP-92
HT-29 = tested on: HT-29
NCI-H226 = tested on: NCI-H226
K562 = tested on: K562
HL-60 = tested on: HL-60
EKVX = tested on: EKVX
ACHN = tested on: ACHN
KM12 = tested on: KM12
MCF7 = tested on: MCF7

For `C=C(C)[C@@H]1CCC2=C[C@@H](OC2=O)[C@@H](C(=C)C)C2=CC(C(=O)O)=C(C1)O2`, the GI50 (NCI-H522) was > 100 µM (inactive), the GI50 (SNB-75) was > 100 µM (inactive) and the GI50 (SK-MEL-2) was > 100 µM (inactive). The GI50 (BT-549) was > 100 µM (inactive), the GI50 (CCRF-CEM) was 38.7 µM (inactive) and the GI50 (SF-268) was > 100 µM (inactive). The GI50 (TK-10) was > 100 µM (inactive), the GI50 (UACC-257) was > 100 µM (inactive) and the GI50 (UO-31) was 26 µM (inactive). The GI50 (RPMI-8226) was 40.6 µM (inactive), the GI50 (MOLT-4) was 46.3 µM (inactive) and the GI50 (RXF 393) was > 100 µM (inactive). The GI50 (OVCAR-3) was 34.1 µM (inactive), the GI50 (SNB-19) was > 100 µM (inactive) and the GI50 (SW-620) was > 100 µM (inactive). The GI50 (HCT-116) was 60.4 µM (inactive), the GI50 (LOX IMVI) was 42 µM (inactive) and the GI50 (DU-145) was > 100 µM (inactive). The GI50 (HCT-15) was over 100 µM, the GI50 (HOP-62) was > 100 µM (inactive) and the GI50 (MDA-MB-435) was > 100 µM (inactive). For the same molecule, the GI50 (NCI-H23) was > 100 µM (inactive), the GI50 (Hs-578T) was > 100 µM (inactive) and the GI50 (UACC-62) was > 100 µM (inactive). For the same molecule, the GI50 (A549) was > 100 µM (inactive), the GI50 (Malme-3M) was > 100 µM (inactive) and the GI50 (HCC 2998) was > 100 µM (inactive). The GI50 (A498) was > 100 µM (inactive), the GI50 (T47D) was 59.2 µM (inactive) and the GI50 (SK-MEL-5) was > 100 µM (inactive). The GI50 (OVCAR-5) was > 100 µM (inactive), the GI50 (SF-295) was > 100 µM (inactive) and the GI50 (NCI/ADR-RES) was > 100 µM (inactive). For the same molecule, the GI50 (SK-OV-3) was > 100 µM (inactive), the GI50 (MDA-N) was > 100 µM (inactive) and the GI50 (MDA-MB-231) was > 100 µM (inactive). The GI50 (CAKI-1) was > 100 µM (inactive), the GI50 (OVCAR-8) was > 100 µM (inactive) and the GI50 (COLO 205) was > 100 µM (inactive). The GI50 (SN12C) was > 100 µM (inactive), the GI50 (IGROV-1) was > 100 µM (inactive) and the GI50 (M14) was > 100 µM (inactive). The GI50 (OVCAR-4) was > 100 µM (inactive), the GI50 (786-0) was > 100 µM (inactive) and the GI50 (SF-539) was > 100 µM (inactive). For the same molecule, the GI50 (HOP-92) was > 100 µM (inactive), the GI50 (HT-29) was > 100 µM (inactive) and the GI50 (NCI-H226) was > 100 µM (inactive). The GI50 (K562) was 41 µM (inactive), the GI50 (HL-60) was 78 µM (inactive) and the GI50 (EKVX) was > 100 µM (inactive). For the same molecule, the GI50 (ACHN) was > 100 µM (inactive), the GI50 (KM12) was 80.2 µM (inactive) and the GI50 (MCF7) was 68.1 µM (inactive).
